Experimental data as given in patent US3992371A, “Penicillins substituted with heterocyclic and substituted phenyl groups” (Sumitomo Chemical Company, Limited, priority 1973, dated 1976).
Values after ≈ are worked out from the molar mass of the structure shown.

What was measured:
Experiment in all cases: Minimal inhibitory concentration, agar dilution method
Format in all cases: cell-based
[1] = tested on: Proteus miravilis GN2425
[2] = tested on: Proteus vulgaris HV19
[3] = tested on: Pseudomonas aeruginosa 104
Excerpt: (§1) When determined according to the agar dilution method, the penicillins (I) afford the minimal inhibitory concentrations against test microorganisms as shown in Table 2.

[4] = tested on: Klebsiella pneumoniae PCI602
Excerpt: as §1

[5] = tested on: Staphylococcus aureus 209P
Excerpt: as §1

[6] = tested on: Escherichia coli NIHJ
Excerpt: as §1

MIC [1] | MIC [2] | MIC [3] | MIC [4] | MIC [5] | MIC [6] | Compound
12.5 µg/mL (≈ 23.2 µM) | 0.2 µg/mL (≈ 0.371 µM) | 1.56 µg/mL (≈ 2.89 µM) | 12.5 µg/mL (≈ 23.2 µM) | 0.78 µg/mL (≈ 1.45 µM) | 3.13 µg/mL (≈ 5.8 µM) | CC1(C)SC2C(NC(=O)C(NC(=O)c3nc4ccccc4nc3O)c3cccc(F)c3)C(=O)N2C1C(=O)O (stereo not drawn) [Example 48]
3.13 µg/mL (≈ 5.42 µM) | 0.2 µg/mL (≈ 0.346 µM) | 3.13 µg/mL (≈ 5.42 µM) | 6.25 µg/mL (≈ 10.8 µM) | 0.78 µg/mL (≈ 1.35 µM) | 3.13 µg/mL (≈ 5.42 µM) | CC1(C)SC2C(NC(=O)C(NC(=O)c3cnc4cc5c(cc4c3O)OCC5)c3cccc(N)c3)C(=O)N2C1C(=O)O (stereo not drawn) [Example 49]
12.5 µg/mL (≈ 21.7 µM) | 0.39 µg/mL (≈ 0.677 µM) | 3.13 µg/mL (≈ 5.44 µM) | 12.5 µg/mL (≈ 21.7 µM) | 0.78 µg/mL (≈ 1.35 µM) | 3.13 µg/mL (≈ 5.44 µM) | CC1(C)SC2C(NC(=O)C(NC(=O)c3cnc4c5c(ccc4c3O)CCC5)c3cccc(N)c3)C(=O)N2C1C(=O)O (stereo not drawn) [Example 50]
3.13 µg/mL (≈ 4.9 µM) | 0.2 µg/mL (≈ 0.313 µM) | 3.13 µg/mL (≈ 4.9 µM) | 6.25 µg/mL (≈ 9.78 µM) | 0.78 µg/mL (≈ 1.22 µM) | 3.13 µg/mL (≈ 4.9 µM) | CSc1nc2ccc3ncc(C(=O)NC(C(=O)NC4C(=O)N5C4SC(C)(C)C5C(=O)O)c4cccc(N)c4)c(O)c3c2s1 (stereo not drawn) [Example 51]
1.56 µg/mL (≈ 2.58 µM) | 0.05 µg/mL (≈ 0.0826 µM) | 1.56 µg/mL (≈ 2.58 µM) | 6.25 µg/mL (≈ 10.3 µM) | 1.56 µg/mL (≈ 2.58 µM) | 0.78 µg/mL (≈ 1.29 µM) | CC1(C)SC2C(NC(=O)C(NC(=O)c3cnc4ccc(N5CCCC5)nc4c3O)c3ccc(N)cc3)C(=O)N2C1C(=O)O (stereo not drawn) [Example 52]
3.13 µg/mL (≈ 5.16 µM) | 0.025 µg/mL (≈ 0.0412 µM) | 3.13 µg/mL (≈ 5.16 µM) | 6.25 µg/mL (≈ 10.3 µM) | 1.56 µg/mL (≈ 2.57 µM) | 3.13 µg/mL (≈ 5.16 µM) | CC1(C)SC2C(NC(=O)C(NC(=O)c3cnc4nc(N5CCCC5)ncc4c3O)c3cccc(N)c3)C(=O)N2C1C(=O)O (stereo not drawn) [Example 53]
3.13 µg/mL (≈ 5.03 µM) | 0.05 µg/mL (≈ 0.0803 µM) | 3.13 µg/mL (≈ 5.03 µM) | 6.25 µg/mL (≈ 10 µM) | 1.56 µg/mL (≈ 2.51 µM) | 3.13 µg/mL (≈ 5.03 µM) | CC1(C)SC2C(NC(=O)C(NC(=O)c3cnc4nc(N5CCOCC5)ncc4c3O)c3ccc(N)cc3)C(=O)N2C1C(=O)O (stereo not drawn) [Example 54]
0.78 µg/mL (≈ 1.35 µM) | 0.025 µg/mL (≈ 0.0431 µM) | 1.56 µg/mL (≈ 2.69 µM) | 6.25 µg/mL (≈ 10.8 µM) | 1.56 µg/mL (≈ 2.69 µM) | 0.78 µg/mL (≈ 1.35 µM) | CCNc1ccc2ncc(C(=O)NC(C(=O)NC3C(=O)N4C3SC(C)(C)C4C(=O)O)c3cccc(N)c3)c(O)c2n1 (stereo not drawn) [Example 55]
3.13 µg/mL (≈ 5.51 µM) | 0.05 µg/mL (≈ 0.0881 µM) | 3.13 µg/mL (≈ 5.51 µM) | 6.25 µg/mL (≈ 11 µM) | 1.56 µg/mL (≈ 2.75 µM) | 1.56 µg/mL (≈ 2.75 µM) | Cc1nc(O)c2c(O)c(C(=O)NC(C(=O)NC3C(=O)N4C3SC(C)(C)C4C(=O)O)c3cccc(N)c3)cnc2n1 (stereo not drawn) [Example 56]
1.56 µg/mL (≈ 2.61 µM) | 0.025 µg/mL (≈ 0.0418 µM) | 1.56 µg/mL (≈ 2.61 µM) | 6.25 µg/mL (≈ 10.5 µM) | 1.56 µg/mL (≈ 2.61 µM) | 0.78 µg/mL (≈ 1.31 µM) | COc1nc(OC)c2ncc(C(=O)NC(C(=O)NC3C(=O)N4C3SC(C)(C)C4C(=O)O)c3cccc(N)c3)c(O)c2n1 (stereo not drawn) [Example 57]
3.13 µg/mL (≈ 5.67 µM) | 0.05 µg/mL (≈ 0.0906 µM) | 3.13 µg/mL (≈ 5.67 µM) | 12.5 µg/mL (≈ 22.7 µM) | 1.56 µg/mL (≈ 2.83 µM) | 1.56 µg/mL (≈ 2.83 µM) | Cc1ncc2c(O)c(C(=O)NC(C(=O)NC3C(=O)N4C3SC(C)(C)C4C(=O)O)c3cccc(N)c3)cnc2n1 (stereo not drawn) [Example 58]
6.25 µg/mL (≈ 11.3 µM) | 0.1 µg/mL (≈ 0.181 µM) | 1.56 µg/mL (≈ 2.82 µM) | 12.5 µg/mL (≈ 22.6 µM) | 0.78 µg/mL (≈ 1.41 µM) | 3.13 µg/mL (≈ 5.65 µM) | CCn1ncc2c(O)c(C(=O)NC(C(=O)NC3C(=O)N4C3SC(C)(C)C4C(=O)O)c3ccc(N)cc3)cnc21 (stereo not drawn) [Example 59]
1.56 µg/mL (≈ 2.83 µM) | 0.05 µg/mL (≈ 0.0906 µM) | 1.56 µg/mL (≈ 2.83 µM) | 6.25 µg/mL (≈ 11.3 µM) | 0.78 µg/mL (≈ 1.41 µM) | 0.78 µg/mL (≈ 1.41 µM) | Cc1cc(C(NC(=O)c2cnc3cccnc3c2O)C(=O)NC2C(=O)N3C2SC(C)(C)C3C(=O)O)ccc1O (stereo not drawn) [Example 60]
1.56 µg/mL (≈ 2.82 µM) | 0.025 µg/mL (≈ 0.0452 µM) | 1.56 µg/mL (≈ 2.82 µM) | 12.5 µg/mL (≈ 22.6 µM) | 0.78 µg/mL (≈ 1.41 µM) | 0.78 µg/mL (≈ 1.41 µM) | CC1(C)SC2C(NC(=O)C(NC(=O)c3cnc4cccnc4c3O)c3ccc(O)c(O)c3)C(=O)N2C1C(=O)O (stereo not drawn) [Example 61]
3.13 µg/mL (≈ 5.37 µM) | 0.05 µg/mL (≈ 0.0858 µM) | 1.56 µg/mL (≈ 2.68 µM) | 12.5 µg/mL (≈ 21.5 µM) | 1.56 µg/mL (≈ 2.68 µM) | 1.56 µg/mL (≈ 2.68 µM) | CC1(C)SC2C(NC(=O)C(NC(=O)c3cnc4cccnc4c3O)c3ccc(O)c([N+](=O)[O-])c3)C(=O)N2C1C(=O)O (stereo not drawn) [Example 62]
1.56 µg/mL (≈ 2.82 µM) | 0.025 µg/mL (≈ 0.0452 µM) | 1.56 µg/mL (≈ 2.82 µM) | 6.25 µg/mL (≈ 11.3 µM) | 0.78 µg/mL (≈ 1.41 µM) | 0.78 µg/mL (≈ 1.41 µM) | CC1(C)SC2C(NC(=O)C(NC(=O)c3cnc4cccnc4c3O)c3ccc(O)c(N)c3)C(=O)N2C1C(=O)O (stereo not drawn) [Example 63]
3.13 µg/mL (≈ 5.51 µM) | 0.05 µg/mL (≈ 0.0881 µM) | 1.56 µg/mL (≈ 2.75 µM) | 12.5 µg/mL (≈ 22 µM) | 1.56 µg/mL (≈ 2.75 µM) | 3.13 µg/mL (≈ 5.51 µM) | COc1cc(C(NC(=O)c2cnc3cccnc3c2O)C(=O)NC2C(=O)N3C2SC(C)(C)C3C(=O)O)ccc1O (stereo not drawn) [Example 64]
